Experimental data: publication PMC2655357 (The Febs Journal, 2008)

Target: AaIspE (Aquifex aeolicus, UniProt O67060)
Assay: crystal structure
Assay type: binding
Conditions: co-crystallized with 4 mM AMP-PNP and 4 mM CDP; substrate (CDPME) site

Chain of AaIspE (O67060 whole entry): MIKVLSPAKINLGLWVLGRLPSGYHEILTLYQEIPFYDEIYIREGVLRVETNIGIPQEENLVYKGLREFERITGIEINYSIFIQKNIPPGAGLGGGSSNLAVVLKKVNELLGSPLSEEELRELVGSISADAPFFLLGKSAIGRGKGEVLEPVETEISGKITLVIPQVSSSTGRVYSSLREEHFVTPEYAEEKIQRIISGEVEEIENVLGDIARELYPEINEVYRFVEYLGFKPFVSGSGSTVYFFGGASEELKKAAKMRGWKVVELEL

Nc1ccn([C@@H]2O[C@H](COP(=O)(O)OP(=O)(O)O)[C@@H](O)[C@H]2O)c(=O)n1 [CDP]
crystal structure (complex I, 2.1 Å): In complex I, CDP displays a single conformation in molecule A and three in molecule B
